Results: EP4701641B1, “5-AMINO-2,3-DIHYDRO-1,4-PHTHAL[…] THE PROPHYLAXIS AND TREATMENT OF […]” (MetrioPharm AG, priority 2023, dated 2025)
Read-outs that look alike come from different tables or passages of the source.

Key:
SARS-CoV-2 = SARS-CoV-2 infected cells; from WO 2021/249667; cited from earlier work
[1] = system: Coronary artery smooth muscle cells; details: added 1 hour before stimulation with IL-1β, TNF-α and IFN-γ, 48 hours in culture, triplicates averaged
Method: Coronary artery smooth muscle cells pooled from human donors (n = 3) were commercially acquired and cultured according to the recommendations of the manufacturer. They were stimulated with IL-1β, TNF-α and IFN-γ to emulate conditions of vascular inflammation. The […] were cultured in 96 well-plates until confluence. Details are described in Kunkel et al. (2004) FASEB J 18: 1279-1281). […] The substance was added at the indicated concentration 1 hour before stimulation and remained in culture for 48 hours. Each plate contained positive and negative controls (non-stimulated cells) as well as vehicle controls (buffer solution). Direct ELISA (enzyme-linked immunosorbent assay) was used to measure thrombomodulin levels. Soluble factors from supernatants were quantified using capture ELISA.
Measurements were carried out in triplicates which were then averaged and divided by the average of vehicle control samples. Vehicle control samples were taken as 100%.

[2] = system: hospitalized patients with moderate to severe COVID-19
D-dimer = details: for D-dimer concentration (median of the group): plasma
Source text: The study was randomized, double-blind, and placebo-controlled, with enrollment at 20 IEC (independent ethics committee)-approved sites across six countries (Bulgaria, France, Hungary, Italy Romania, Spain); a list of all participating sites is published on clinicaltrials.gov. (NCT04932941). This study was partially funded by the COVID-19 Horizon Europe work programme (Project No.: 101046182). The funder of the study had no role in study design, data collection, data analysis, data interpretation, or writing of the report.
Further details on the in- and exclusion criteria are available on cliniclatrials.gov NCT04932941.
Stratification factors included baseline COVID-19 severity and age-class (aged ≤ 65 years versus > 65 years).
Patients were treated for 28 days. […] These patients were discharged from the hospital before and received medication (verum or placebo) for continuing self-treatment for the remaining time at home. After 60 days there was a follow-up visit.
The D-dimer level is an important prognostic marker for COVID-19 severity. An elevated D-dimer level is associated with thromboembolic complications. For monitoring the development of this biomarker throughout the study blood samples were taken at Days 1, 7, 14, 21, 28 and 60. The D-dimer concentration was determined (PPD Central Lab, Zaventem, Belgium) from the plasma by means of monoclonal antibodies quantified in an ELISA (cf. Olson (2015) Adv Clin Chem 69: 1 - 46; Johnson et al. (2019) Am J Hematol 94: 833-839).

SMILES: Nc1cccc2c(=O)[nH][nH]c(=O)c12.[Na] [5-amino-2,3-dihydro-1,4-phthalazinedione sodium salt]
- replication of the virus (SARS-CoV-2): suppress dose-dependently
- thrombomodulin release (vehicle control = 100%) ([1]; 62.5 µM): 127.4%
- thrombomodulin release (vehicle control = 100%) ([1]; 250 µM): 115.1%
- thrombomodulin release (vehicle control = 100%) ([1]; 1 mM): 159.6%
- thrombomodulin release (vehicle control = 100%) ([1]; 4 mM): 255.9%
- disease resolution by Day 14 (patients) ([2]; 300 mg BID plus SoC, placebo group 31/43): 69/82
- effect on hemostasis (clinical parameters or adverse side effects) ([2]; clinical study in COVID-19 patients): no evidence
- D-dimer concentration (median of the group) (D-dimer; day 60 (follow-up visit)): 138.0 ng/mL DDU
- modelled effect on D-dimer levels compared to placebo (D-dimer; post-hoc analysis, modelled, p<0.001, Fig. 1): significant decrease
- D-dimer concentration (median of the group) (D-dimer; treatment day 1, 300 mg BID plus SoC): 235.5 ng/mL DDU
- D-dimer concentration (median of the group) (D-dimer; treatment day 7, 300 mg BID plus SoC): 205.0 ng/mL DDU
- D-dimer concentration (median of the group) (D-dimer; treatment day 14, 300 mg BID plus SoC): 171.0 ng/mL DDU
- D-dimer concentration (median of the group) (D-dimer; treatment day 21, 300 mg BID plus SoC): 208.0 ng/mL DDU
- D-dimer concentration (median of the group) (D-dimer; treatment day 28, 300 mg BID plus SoC): 172.0 ng/mL DDU
